# Source: patent publication US20100227917A1, “EYE DROP CONTAINING DIBENZ[b,e]OXEPIN DERIVATIVE” (priority 2007, published 2010)
# Tests used:
# Assay type in all cases: physicochemical
# pH measurement = assay: pH measurement
# [1] = Osmotic pressure measurement with osmometer; conditions: ratio to physiological saline (293 mOsm), after 43 hours
# Protocol: An osmotic pressure was measured using an osmometer (Osmostat OM6040, Arkray, Inc.).
# Further, a ratio to the osmotic pressure of physiological saline was calculated according to the following equation.
# (osmotic pressure ratio)=(osmotic pressure of test liquid)/(osmotic pressure of physiological saline)(293mOsm)
# [2] = External observation of olopatadine hydrochloride mixtures (Test Examples 1 and 2); conditions: for External appearance after 1 hour stirring: about 23° C.; for External appearance after 43 hours: left at about 23° C.
# [3] = 100 mg in 10 mL Aqueous solution of 0.9% NaCl
# [4] = 100 mg in 10 mL Buffer at pH 4.0 containing 0.9% NaCl
# [5] = 100 mg in 10 mL Buffer at pH 7.0 containing 0.9% NaCl
# [6] = 100 mg in 10 mL glutamic acid-sodium glutamate buffer at pH 4.0, column prepared to pH 4.0
# [7] = 100 mg in 10 mL glutamic acid-sodium glutamate buffer at pH 4.0, column prepared to pH 7.0
# [8] = 100 mg in 10 mL glutamic acid-sodium glutamate buffer at pH 7.0, column prepared to pH 4.0
# [9] = 100 mg in 10 mL glutamic acid-sodium glutamate buffer at pH 7.0, column prepared to pH 7.0
# [10] = Aqueous solution of 0.9% NaCl, prepared to pH 4
# [11] = Buffer at pH 4.0 containing 0.9% NaCl, prepared to pH 4
# [12] = Buffer at pH 7.0 containing 0.9% NaCl, prepared to pH 4
# [13] = glutamic acid-sodium glutamate buffer at pH 4.0, prepared to pH 4.0
# [14] = glutamic acid-sodium glutamate buffer at pH 4.0, prepared to pH 7.0
# [15] = glutamic acid-sodium glutamate buffer at pH 7.0, prepared to pH 4.0
# [16] = glutamic acid-sodium glutamate buffer at pH 7.0, prepared to pH 7.0
smiles,measurement,setting,value
"CN(C)CC/C=C1/c2ccccc2COc2ccc(CC(=O)O)cc21.Cl [olopatadine hydrochloride, (Z)-11-(3-dimethylaminopropylidene)-6,11-dihydrodibenz[b,e]oxepin-2-acetic acid hydrochloride]",pH after 1 hour stirring,pH measurement; [3],3.0
same,pH after 1 hour stirring,pH measurement; [4],3.6
same,pH after 1 hour stirring,pH measurement; [5],4.1
same,pH after 1 hour stirring,pH measurement; [6],3.3
same,pH after 1 hour stirring,pH measurement; [7],3.3
same,pH after 1 hour stirring,pH measurement; [8],4.0
same,pH after 1 hour stirring,pH measurement; [9],4.0
same,pH adjustment (actual measurement value),pH measurement; [10],3.8
same,pH after 43 hours,pH measurement; [10],3.7
same,pH adjustment (actual measurement value),pH measurement; [11],3.8
same,pH after 43 hours,pH measurement; [11],3.8
same,pH adjustment (actual measurement value),pH measurement; [12],4.1
same,pH after 43 hours,pH measurement; [12],3.9
same,pH adjustment (actual measurement value),pH measurement; [13],4.1
same,pH after 43 hours,pH measurement; [13],3.9
same,pH adjustment (actual measurement value),pH measurement; [14],6.9
same,pH after 43 hours,pH measurement; [14],6.9
same,pH adjustment (actual measurement value),pH measurement; [15],4.0
same,pH after 43 hours,pH measurement; [15],3.7
same,pH adjustment (actual measurement value),pH measurement; [16],6.9
same,pH after 43 hours,pH measurement; [16],6.9
same,Osmotic pressure ratio,[1]; [10],1.085
same,Osmotic pressure ratio,[1]; [11],1.167
same,Osmotic pressure ratio,[1]; [12],1.201
same,Osmotic pressure ratio,[1]; [13],0.290
same,Osmotic pressure ratio,[1]; [14],0.403
same,Osmotic pressure ratio,[1]; [15],0.270
same,Osmotic pressure ratio,[1]; [16],0.379
same,External appearance after 1 hour stirring,[2]; [3],Turbid in white
same,External appearance after 1 hour stirring,[2]; [4],Turbid in white
same,External appearance after 1 hour stirring,[2]; [5],Almost clear
same,External appearance after 1 hour stirring,[2]; [6],Clear
same,External appearance after 1 hour stirring,[2]; [7],Clear
same,External appearance after 1 hour stirring,[2]; [8],Clear
same,External appearance after 1 hour stirring,[2]; [9],Clear
same,External appearance after pH adjustment,[2]; [10],Turbid in white
same,External appearance after 43 hours,[2]; [10],Turbid in white
same,External appearance after pH adjustment,[2]; [11],Turbid in white
same,External appearance after 43 hours,[2]; [11],Turbid in white
same,External appearance after pH adjustment,[2]; [12],Almost clear
same,External appearance after 43 hours,[2]; [12],Turbid in white
same,External appearance after pH adjustment,[2]; [13],Clear
same,External appearance after 43 hours,[2]; [13],Turbid in white
same,External appearance after pH adjustment,[2]; [14],Turbid in white
same,External appearance after 43 hours,[2]; [14],Turbid in white
same,External appearance after pH adjustment,[2]; [15],Clear
same,External appearance after pH adjustment,[2]; [16],Turbid in white
same,External appearance after 43 hours,[2]; [16],Turbid in white
